Earlier results as cited in patent publication US20230000814A1, “PHARMACEUTICAL COMPOSITION COMPRISING STEROID COMPOUND AND OLOPATADINE” (TOKO YAKUHIN KOGYO CO., LTD., priority 2019, published 2023).
Like-named read-outs stand apart in the source and are kept apart here.

solubility of olopatadine (around neutral pH): very low
solubility of olopatadine (concentration 0.2% or more as olopatadine free base, solution having pH of 5 or higher): not soluble
Structure (SMILES): CN(C)CC/C=C1/c2ccccc2COc2ccc(CC(=O)O)cc21 [olopatadine, Olopatadine]
